Measurements taken from US20240190855A1 (Relay Therapeutics, Inc., priority 2021, published 2024).

What follows are compounds tested against T1, CDK2/Cyclin E complex (Homo sapiens, UniProt P24941) (assay: CDK2/Cyclin E fluorescence-based microfluidic mobility shift assay (CDK2 Biochemical Caliper Assay)). Conditions: read-out: Biochemical CDK2/CyclinE Caliper IC50.
T1 construct: purchased Eurofins 14-475
Summary of the method: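 Wild-type CDK2/Cyclin E was preincubated with compound and ATP for 30 min at RT before the 5-FAM-QSPKKG peptide was added. Final concentrations were 0.1 nM enzyme, 2000 uM ATP, 1.5 uM peptide and 1% DMSO. After 20 hr at RT and EDTA stop, substrate conversion was read by microfluidic mobility shift over an 11-point, 3-fold dilution series.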

Row | Structure (SMILES) | IC50 [nM]
1 | CC(C)NC(=O)O[C@H]1CC[C@@H](c2cc(NC(=O)CN(C)c3ncnc4nc[nH]c34)[nH]n2)C1 (single isomer, unassigned) [Example 375] | ≤ 100
2 | Cc1cc(CC(=O)Nc2cc(-c3csc4cncnc34)[nH]n2)on1 [Example 240] | 1000 to 100000
3 | Cc1cc(CC(=O)Nc2cc([C@H]3CC[C@@H](OC(=O)N4CC5CC(C5)C4)C3)[nH]n2)on1 [Example 663] | ≤ 100
4 | CCCc1cnnc(Nc2cc(C3CCCC3)[nH]n2)c1 [Example 807] | 1000 to 100000
5 | COCc1cc(C(=O)Nc2cc([C@H]3CC[C@H](c4cnc(C)cn4)C3)[nH]n2)n(C)n1 (single isomer, unassigned) [Example 579] | 1000 to 100000
6 | O=c1ccc2nc(Nc3cc(C4CCCC4)[nH]n3)ccc2[nH]1 [Example 849] | 1000 to 100000
7 | Cc1cc(CC(=O)Nc2cc([C@@H]3CC[C@H](Oc4cncnc4)C3)[nH]n2)on1 (single isomer, unassigned) [Example 363] | 250 to 1000
8 | Cn1nc(OCC(F)(F)F)cc1C(=O)Nc1cc([C@H]2C[C@@H](OC(=O)NC34CC(C3)C4)CO2)[nH]n1 [Example 881] | ≤ 100
9 | COCc1cc(C(=O)Nc2cc([C@H]3CC[C@@](C)(CC(=O)NC(C)C)C3)[nH]n2)n(C)n1 (single isomer, unassigned) [Example 419] | 1000 to 100000
10 | Cc1cc(CC(=O)Nc2cc([C@@H]3CC[C@H](NC(=O)c4ccccc4)C3)[nH]n2)on1 (single isomer, unassigned) [Example 132] | 1000 to 100000
11 | CC(C)NC(=O)O[C@H]1CC[C@@H](c2cc(Nc3ncnc4ncccc34)n[nH]2)C1 (single isomer, unassigned) [Example 401] | ≤ 100
12 | COCc1cc(C(=O)Nc2cc([C@@H]3CC[C@@H](c4cc(C(C)C)ncn4)C3)[nH]n2)n(C)n1 (single isomer, unassigned) [Example 604] | 1000 to 100000
13 | Cc1cc(CC(=O)Nc2cc([C@@H]3CC[C@H](Oc4cccnc4)C3)[nH]n2)on1 (single isomer, unassigned) [Example 340] | 1000 to 100000
14 | Cc1cc(CC(=O)Nc2cc(C3CCCCC3)[nH]n2)on1 [Example 48] | 1000 to 100000
15 | Cc1cc2ccccc2c(Nc2cc(C3CCCC3)[nH]n2)n1 [Example 858] | 1000 to 100000
16 | Cc1ccc(O[C@@H]2CC[C@H](c3cc(NC(=O)Cc4cc(C)no4)n[nH]3)C2)cn1 (single isomer, unassigned) [Example 357] | 1000 to 100000
17 | Cc1cc(CC(=O)Nc2cc(C3(C)CCCC3)[nH]n2)on1 [Example 47] | 1000 to 100000
18 | CC(C)NC(=O)O[C@@H]1CC[C@H](c2cc(NC=O)n[nH]2)C1 (single isomer, unassigned) [Example 440] | 250 to 1000
19 | Cc1cc(CC(=O)Nc2cc([C@H]3C[C@@H](CC(=O)NC(C)C)C3)[nH]n2)on1 [Example 347] | 1000 to 100000
20 | CC(=O)Nc1nc2ccnc(Nc3cc([C@H]4CC[C@@H](OC(=O)NC(C)C)C4)[nH]n3)c2s1 (single isomer, unassigned) [Example 423] | ≤ 100
21 | CC(C)NC(=O)O[C@@H]1CC[C@H](c2cc(Nc3ncnc4ncccc34)n[nH]2)C1 (single isomer, unassigned) [Example 400] | ≤ 100
22 | Clc1cccc2nc(Nc3cc(C4CCCC4)[nH]n3)cnc12 [Example 801] | 1000 to 100000
23 | COCc1cc(C(=O)Nc2cc([C@@H]3C[C@H](OC)[C@@H](OC(=O)NC(C)C)C3)[nH]n2)n(C)n1 (single isomer, unassigned) [Example 569] | 1000 to 100000
24 | COCc1cc(C(=O)Nc2cc(N3CC(COC(=O)NC(C)C)C3)[nH]n2)n(C)n1 [Example 558] | 1000 to 100000
25 | Cc1cnn(-c2ccnc(Nc3cc([C@@H]4CC[C@H](OC(=O)NC(C)C)C4)[nH]n3)c2)c1 (single isomer, unassigned) [Example 403] | 100 to 250
26 | COCC1(NC(=O)O[C@@H]2CO[C@H](c3cc(NC(=O)c4cc(COC(F)(F)F)nn4C)n[nH]3)C2)CC1 [Example 894] | ≤ 100

Second part, the compound after the results:

Row | IC50 [nM] | Structure (SMILES)
27 | ≤ 100 | COCc1cc(C(=O)Nc2cc([C@@H]3CC[C@H](Oc4nccnc4C(C)C)C3)[nH]n2)n(C)n1 (single isomer, unassigned) [Example 531]
28 | 1000 to 100000 | COCc1cc2c(Nc3cc([C@H]4C[C@@H](Oc5nn(C)cc5C(C)(C)C)CO4)[nH]n3)nccn2n1 [Example 783]
29 | ≤ 100 | COCc1cc2c(Nc3cc([C@@H]4C[C@H](OC(=O)NC(C)(C)C)CO4)[nH]n3)nccn2n1 (single isomer, unassigned) [Example 618]
30 | ≤ 100 | COCc1cc2c(Nc3cc([C@@H]4C[C@H](Oc5nncn5C(C)(C)C)CO4)[nH]n3)nccn2n1 [Example 742]
31 | ≤ 100 | CC(C)(C)n1cnnc1O[C@H]1CO[C@@H](c2cc(Nc3nccn4nccc34)n[nH]2)C1 [Example 774]
32 | 1000 to 100000 | COCc1cc(C(=O)Nc2cc([C@H]3C[C@H](COc4nnccc4C(C)C)C3)[nH]n2)n(C)n1 [Example 430]
33 | ≤ 100 | COCc1cc2c(Nc3cc([C@H]4C[C@@H](OC(=O)N[C@]5(C)CC5(F)F)CO4)[nH]n3)nccn2n1 (single isomer, unassigned) [Example 729]
34 | 1000 to 100000 | COCc1cc(C(=O)Nc2cc([C@H]3C[C@@H](COc4cccnc4)C3)[nH]n2)n(C)n1 [Example 561]
35 | 100 to 250 | COCc1cc(C(=O)Nc2cc([C@H]3CC[C@@H](Oc4nnccc4-c4ccccc4)C3)[nH]n2)n(C)n1 (single isomer, unassigned) [Example 474]
36 | ≤ 100 | COCc1cc2c(Nc3cc([C@H]4C[C@@H](OC(=O)NC5(C(F)F)CC5)CO4)[nH]n3)nccn2n1 [Example 644]
37 | ≤ 100 | COCc1cc2c(Nc3cc([C@H]4C[C@@H](OC(=O)N[C@H]5CC5(C)C)CO4)[nH]n3)nccn2n1 [Example 677]
38 | ≤ 100 | COCc1cc(C(=O)Nc2cc([C@H]3CC[C@@H](Oc4cc(C(C)C)cnn4)C3)[nH]n2)n(C)n1 (single isomer, unassigned) [Example 492]
39 | ≤ 100 | COCc1cc(C(=O)Nc2cc([C@H]3CC[C@@H](Oc4nncc5cnccc45)C3)[nH]n2)n(C)n1 (single isomer, unassigned) [Example 534]
40 | ≤ 100 | COCc1cc(C(=O)Nc2cc([C@H]3C[C@@H](COc4cn[nH]c4C(C)(C)C)C3)[nH]n2)n(C)n1 [Example 622]
41 | 1000 to 100000 | COCc1cc2c(Nc3cc([C@H]4C[C@@H](OC(=O)NCCC5CCOCC5)CO4)[nH]n3)nccn2n1 [Example 694]
42 | ≤ 100 | COCc1nc2ccnc(Nc3cc([C@H]4CC[C@@H](Oc5nnccc5C(C)C)C4)[nH]n3)c2s1 (single isomer, unassigned) [Example 444]
43 | 1000 to 100000 | CC(C)c1[nH]ncc1O[C@H]1CO[C@@H](c2cc(Nc3nccn4nccc34)n[nH]2)C1 (single isomer, unassigned) [Example 585]
44 | ≤ 100 | COCc1cc2c(Nc3cc([C@H]4C[C@@H](OC(=O)N[C@@]5(C)CC5(F)F)CO4)[nH]n3)nccn2n1 (single isomer, unassigned) [Example 731]
45 | ≤ 100 | CC(C)c1ccnnc1O[C@H]1CO[C@@H](c2cc(Nc3nccn4nccc34)n[nH]2)C1 [Example 464]
46 | ≤ 100 | COCc1cc2c(Nc3cc([C@H]4C[C@@H](OC(=O)NC(C)(C)C(F)(F)F)CO4)[nH]n3)nccn2n1 [Example 641]
47 | ≤ 100 | COCc1cc2c(Nc3cc([C@H]4C[C@@H](OC(=O)NC5(C#N)CC5)CO4)[nH]n3)nccn2n1 [Example 698]
